Reference: patent publication US20060134102A1, “Lymphotoxin beta receptor agents in combination with chemotherapeutic agents” (Biogen Idec MA Inc., priority 2002, published 2006)

Tested on: KM-20L2 human colorectal adenocarcinoma
Assay: KM-20L2 xenograft model: growth of established KM-20L2 human colorectal tumors in athymic nude mice (tumor volume/weight, % T/C, Fa, Combination Index)
Assay type: in vivo

## Nc1ccn([C@@H]2O[C@H](CO)[C@@H](O)C2(F)F)c(=O)n1 [Gemcitabine, gemcitabine, reference compound]
Gem 10 mg/kg, Day 37
  Mean Tumor Volume: 723.7 cubic mm
  Mean Tumor Volume Decrease: 484.3 cubic mm
Gem 10 mg/kg, Day 41
  Mean Fraction Affected (Fa): 0.399
  Mean Fraction Affected/Fraction Unaffected (Fa/Fu): 0.664
  Mean Tumor Volume: 865.2 cubic mm
  Mean Tumor Volume Decrease: 574.2 cubic mm
Gem 10 mg/kg, Day 43
  Mean Fraction Affected (Fa): 0.393
  Mean Fraction Affected/Fraction Unaffected (Fa/Fu): 0.647
  Mean Tumor Volume: 975.7 cubic mm
  Mean Tumor Volume Decrease: 631.0 cubic mm
Gem 20 mg/kg, Day 9
  Mean Fraction Affected (Fa): 0.053
  Mean Fraction Affected/Fraction Unaffected (Fa/Fu): 0.056
  Mean Tumor Volume: 105.9 cubic mm
  Mean Tumor Volume Decrease: 5.9 cubic mm
Gem 20 mg/kg, Day 13
  Mean Fraction Affected (Fa): 0.357
  Mean Fraction Affected/Fraction Unaffected (Fa/Fu): 0.555
  Mean Tumor Volume: 111.0 cubic mm
  Mean Tumor Volume Decrease: 61.6 cubic mm
Gem 20 mg/kg, Day 16
  Mean Fraction Affected (Fa): 0.623
  Mean Fraction Affected/Fraction Unaffected (Fa/Fu): 1.655
  Mean Tumor Volume: 99.8 cubic mm
  Mean Tumor Volume Decrease: 165.2 cubic mm
Gem 20 mg/kg, Day 20
  Mean Fraction Affected (Fa): 0.748
  Mean Fraction Affected/Fraction Unaffected (Fa/Fu): 2.966
  Mean Tumor Volume: 101.1 cubic mm
  Mean Tumor Volume Decrease: 299.9 cubic mm
Gem 20 mg/kg, Day 23
  Mean Fraction Affected (Fa): 0.721
  Mean Fraction Affected/Fraction Unaffected (Fa/Fu): 2.579
  Mean Tumor Volume: 147.3 cubic mm
  Mean Tumor Volume Decrease: 379.9 cubic mm
Gem 20 mg/kg, Day 27
  Mean Fraction Affected (Fa): 0.663
  Mean Fraction Affected/Fraction Unaffected (Fa/Fu): 1.970
  Mean Tumor Volume: 225.1 cubic mm
  Mean Tumor Volume Decrease: 443.5 cubic mm
Gem 20 mg/kg, Day 30
  Mean Fraction Affected (Fa): 0.605
  Mean Fraction Affected/Fraction Unaffected (Fa/Fu): 1.530
  Mean Tumor Volume: 322.6 cubic mm
  Mean Tumor Volume Decrease: 493.6 cubic mm
Gem 20 mg/kg, Day 34
  Mean Fraction Affected (Fa): 0.578
  Mean Fraction Affected/Fraction Unaffected (Fa/Fu): 1.371
  Mean Tumor Volume: 443.0 cubic mm
  Mean Tumor Volume Decrease: 607.3 cubic mm
Gem 20 mg/kg, Day 37
  Mean Fraction Affected (Fa): 0.568
  Mean Fraction Affected/Fraction Unaffected (Fa/Fu): 1.314
  Mean Tumor Volume: 522.1 cubic mm
  Mean Tumor Volume Decrease: 685.9 cubic mm
Gem 20 mg/kg, Day 41
  Mean Fraction Affected (Fa): 0.532
  Mean Fraction Affected/Fraction Unaffected (Fa/Fu): 1.135
  Mean Tumor Volume: 674.3 cubic mm
  Mean Tumor Volume Decrease: 765.1 cubic mm
Gem 20 mg/kg, Day 43
  Mean Fraction Affected (Fa): 0.531
  Mean Fraction Affected/Fraction Unaffected (Fa/Fu): 1.134
  Mean Tumor Volume: 753.0 cubic mm
  Mean Tumor Volume Decrease: 853.7 cubic mm
Given Separately, Day 16
  Median Effect Dose: 14.1 mg/kg
Given Separately, Day 20
  Median Effect Dose: 10.1 mg/kg
Given Separately, Day 23
  Median Effect Dose: 10.8 mg/kg
Given Separately, Day 27
  Median Effect Dose: 12.8 mg/kg
Given Separately, Day 30
  Median Effect Dose: 14.1 mg/kg
Given Separately, Day 34
  Median Effect Dose: 14.8 mg/kg
Given Separately, Day 37
  Median Effect Dose: 15.0 mg/kg
Given Separately, Day 41
  Median Effect Dose: 16.8 mg/kg
Given Separately, Day 43
  Median Effect Dose: 16.9 mg/kg
Dose of the labelled agent when huCBE11 and Gemcitabine Combined (4:5), Day 16
  Median Effect Dose: 4.5 mg/kg
Dose of the labelled agent when huCBE11 and Gemcitabine Combined (4:5), Day 20
  Median Effect Dose: 1.7 mg/kg
Dose of the labelled agent when huCBE11 and Gemcitabine Combined (4:5), Day 23
  Median Effect Dose: 0.7 mg/kg
Dose of the labelled agent when huCBE11 and Gemcitabine Combined (4:5), Day 27
  Median Effect Dose: 0.9 mg/kg
Dose of the labelled agent when huCBE11 and Gemcitabine Combined (4:5), Day 30
  Median Effect Dose: 0.8 mg/kg
Dose of the labelled agent when huCBE11 and Gemcitabine Combined (4:5), Day 34
  Median Effect Dose: 0.8 mg/kg
Dose of the labelled agent when huCBE11 and Gemcitabine Combined (4:5), Day 37
  Median Effect Dose: 0.5 mg/kg
Dose of the labelled agent when huCBE11 and Gemcitabine Combined (4:5), Day 41
  Median Effect Dose: 0.7 mg/kg
Dose of the labelled agent when huCBE11 and Gemcitabine Combined (4:5), Day 43
  Median Effect Dose: 0.6 mg/kg
gemcitabine
  Activity by NCI criteria (% T/C of 42 or less): active
Gemcitabine 20 mg/kg Days 13-55, 10 mg/kg Days 16-55, 5 mg/kg Days 13-43, separate study
  Inhibition of tumor growth vs vehicle control: Significant inhibition of tumor growth
Gemcitabine 20 mg/kg, Day 16 through Day 34
  % T/C: ≤ 42%
Gemcitabine 25 mg/kg, Day 17 through Day 31
  % T/C: ≤ 42%
Gemcitabine 140, 100, 50 and 25 mg/kg, Day 10 to Day 41
  Inhibition of tumor growth vs saline control: Significant inhibition of tumor growth
Gemcitabine 140, 100 and 50 mg/kg, from Days 14 or 17 for the duration of the study
  % T/C: ≤ 42%
